The test relates to MDA-MB231 human breast tumor xenografts. The test is described as follows: Tumor growth study, MDA-MB231 breast tumor xenografts in athymic mice. The conditions noted are these: 200 mg/kg intratumoral once daily for 8 days, vs 10% ethanol vehicle group. The class given is in vivo. How it is done:
FIGS. (13A), (13B1–13B2) illustrates the effects of tempo on the growth of human breast tumor xenografts in athymic mice. 13A. Tempo (200 mg/kg) was administered intratumorally once daily for a total of 8 days (*). Control group was treated simultaneously with an equal volume of ethanol (10%). Experiment was terminated when the control tumor volumes exceeded the recommended tumor burden. Each point represents mean q S.E. (n=4). […] (13B1–13B2). Representative tumor-bearing mice. Mice were treated with 10% ethanol (13B1) or tempo (13B2) as explained above.
MDA-MB231 cells (1×10^6) were inoculated subcutaneously in the right flank of 4–6 week-old female athymic mice. Tumor growth was monitored biweekly. Mice bearing tumor volumes in the range of 80–100 mm^3 were randomly selected for treatment. Tempo treatment was initiated (50 mg/kg–200 mg/kg, intratumoral, once daily, for a total of 8 days), and tumor volumes were measured for a total 25 days from the start of treatment.

As for `CC1(C)CCCC(C)(C)N1[O]` [tempo, 2,2,6,6-tetramethylpiperidine-N-oxyl], the tumor growth rate result is on record as “significant decline in tumor growth rate”.

The values above are taken from patent publication US7074807B2, “Compositions and methods for inducing cell death” (Georgetown University, priority 1998, dated 2006).
